For series [1], the system named is Brain. Nature of the series: Fraction unbound in rat brain. The class given is ADME, tissue-based.
Series [2] deals with T1, Metabotropic glutamate receptor 4 (Homo sapiens, UniProt Q14833). Nature of the series: Positive allosteric modulation of human mGlu4 receptor expressed in BHK cells assessed as potentiation of glutamate-induced calcium mobilization by FLIPR analysis relative to PHCCC. The class given is functional, cell-based. (Calcium assays in cells follow changes in intracellular calcium, usually with a dye or a luminescent sensor.)

Series [3] has as its system Cerebrospinal fluid. Kind of series: Drug uptake in rat CSF at 10 mg/kg, po. Set-up: dose 10 mg/kg, route oral. Particulars: in vivo. The class given is ADME, organism-based.
Series [4] is filed under the species Rattus norvegicus. Nature of the series: Intrinsic clearance in rat. The class given is ADME, organism-based. As to conditions: in vivo.
The test system of series [5] is Brain. Nature of the series: Drug uptake in rat brain at 10 mg/kg, po. The class given is ADME, organism-based. Set-up: dose 10 mg/kg, route oral. Particulars: in vivo.
Series [6] has as its target CYP2C9 (Homo sapiens, UniProt P11712). Nature of the series: Inhibition of CYP2C9 at 5 uM. The class given is ADME.
For series [7], the target named is T1, Metabotropic glutamate receptor 4. Nature of the series: Positive allosteric modulation of human mGlu4 receptor expressed in BHK cells assessed as potentiation of glutamate-induced calcium mobilization by FLIPR analysis. The class given is functional, cell-based.
For series [8], the target named is CYP3A4 (Homo sapiens, UniProt P08684). Kind of series: Inhibition of CYP3A4 at 5 uM. The class given is ADME.
For series [9], the target named is T2, CYP2B6 (Homo sapiens, UniProt P20813).
T2 sequence (P20813 whole entry): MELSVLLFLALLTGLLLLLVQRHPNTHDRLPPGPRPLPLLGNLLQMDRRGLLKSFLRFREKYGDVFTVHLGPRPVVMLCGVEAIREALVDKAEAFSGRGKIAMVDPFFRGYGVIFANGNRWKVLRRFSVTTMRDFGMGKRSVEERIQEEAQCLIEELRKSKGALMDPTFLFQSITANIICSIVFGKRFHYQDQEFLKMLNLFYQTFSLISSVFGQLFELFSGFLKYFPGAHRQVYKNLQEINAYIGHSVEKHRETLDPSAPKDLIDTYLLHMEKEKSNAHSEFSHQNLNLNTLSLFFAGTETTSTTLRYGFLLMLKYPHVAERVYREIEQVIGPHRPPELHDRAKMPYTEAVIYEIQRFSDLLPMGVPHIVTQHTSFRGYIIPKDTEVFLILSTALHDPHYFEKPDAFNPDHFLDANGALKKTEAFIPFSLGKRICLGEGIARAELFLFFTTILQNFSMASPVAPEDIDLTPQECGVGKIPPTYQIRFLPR
Nature of the series: Inhibition of CYP2B6 at 5 uM. The class given is ADME.

Series [10] in a line: Kinetic solubility of the compound at pH 7.4. The class given is physicochemical. As to conditions: buffer, read-out: Kinetic_solubility.
The subject of series [11] is Plasma. Kind of series: Plasma concentration in rat at 10 mg/kg, po. The class given is ADME, organism-based. The arrangement: dose 10 mg/kg, route oral. Particulars: in vivo.
The nature of series [12]: Kinetic solubility of the compound at pH 4.0. As to conditions: buffer, read-out: Kinetic_solubility. The class given is physicochemical.
Series [13] in a line: Plasma protein binding in rat. The class given is ADME, cell-free. As to conditions: read-out: PPB (converted).
Series [14] has as its target T1, Metabotropic glutamate receptor 4. Nature of the series: Positive allosteric modulation of human mGlu4 receptor expressed in BHK cells assessed as fold shift in calcium mobilization by FLIPR analysis relative to glutamate. The class given is functional, cell-based.
Series [15] deals with CYP2C19 (Homo sapiens, UniProt P33261). Nature of the series: Inhibition of CYP2C19 at 5 uM. The class given is ADME.
Series [16] in a line: Ratio of drug level in brain to plasma in rat at 10 mg/kg, po. The class given is ADME, organism-based. Set-up: dose 10 mg/kg, route oral. As to conditions: read-out: BPR.
Series [17] can be described thus: Lipophilicity, log D of compound at pH 7.4. As to conditions: buffer. The class given is physicochemical.
In series [18] the target is Metabotropic glutamate receptor 6 (Homo sapiens) (UniProt O15303). Nature of the series: Positive allosteric modulation of mGlu6 receptor at 10 uM.
Metabotropic glutamate receptor 6 (Homo sapiens), sequence (O15303 whole entry): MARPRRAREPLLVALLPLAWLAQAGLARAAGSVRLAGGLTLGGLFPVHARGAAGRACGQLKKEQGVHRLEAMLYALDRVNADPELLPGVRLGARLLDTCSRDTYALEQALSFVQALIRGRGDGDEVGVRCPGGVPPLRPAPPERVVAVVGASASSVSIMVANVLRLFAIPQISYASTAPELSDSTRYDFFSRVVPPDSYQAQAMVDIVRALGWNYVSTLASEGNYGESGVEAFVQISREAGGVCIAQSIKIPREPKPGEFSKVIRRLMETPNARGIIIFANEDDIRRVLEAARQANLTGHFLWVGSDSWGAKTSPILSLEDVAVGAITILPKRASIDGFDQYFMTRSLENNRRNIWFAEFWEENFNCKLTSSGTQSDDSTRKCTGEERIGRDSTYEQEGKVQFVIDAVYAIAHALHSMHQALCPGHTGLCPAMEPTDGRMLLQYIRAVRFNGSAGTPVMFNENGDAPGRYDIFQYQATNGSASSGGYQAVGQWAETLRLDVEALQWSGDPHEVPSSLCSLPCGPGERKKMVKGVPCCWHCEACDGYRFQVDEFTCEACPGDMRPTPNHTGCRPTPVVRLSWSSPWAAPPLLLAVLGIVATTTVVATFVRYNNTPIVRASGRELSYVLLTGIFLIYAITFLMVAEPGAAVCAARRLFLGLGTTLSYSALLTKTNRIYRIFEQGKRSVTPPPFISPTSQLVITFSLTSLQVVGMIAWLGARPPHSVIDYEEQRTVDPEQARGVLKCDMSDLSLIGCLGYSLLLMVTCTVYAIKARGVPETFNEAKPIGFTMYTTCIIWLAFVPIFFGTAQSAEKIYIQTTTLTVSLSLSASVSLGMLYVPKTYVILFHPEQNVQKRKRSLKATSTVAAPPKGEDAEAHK
Series [19] deals with Metabotropic glutamate receptor 2 (Homo sapiens) (UniProt Q14416). Nature of the series: Negative allosteric modulation of mGlu2 receptor at 10 uM.
The subject of series [20] is Plasma. Nature of the series: Plasma concentration in rat at 30 mg/kg, sc. The class given is ADME, organism-based. The arrangement: dose 30 mg/kg, route subcutaneous. Particulars: in vivo.
Series [21] can be described thus: Inhibition of benzodiazepine receptor.
The target in series [22] is Metabotropic glutamate receptor 7 (Homo sapiens) (UniProt Q14831). Nature of the series: Negative allosteric modulation of mGlu7 receptor at 10 uM.
Metabotropic glutamate receptor 7 (Homo sapiens), sequence (Q14831 whole entry): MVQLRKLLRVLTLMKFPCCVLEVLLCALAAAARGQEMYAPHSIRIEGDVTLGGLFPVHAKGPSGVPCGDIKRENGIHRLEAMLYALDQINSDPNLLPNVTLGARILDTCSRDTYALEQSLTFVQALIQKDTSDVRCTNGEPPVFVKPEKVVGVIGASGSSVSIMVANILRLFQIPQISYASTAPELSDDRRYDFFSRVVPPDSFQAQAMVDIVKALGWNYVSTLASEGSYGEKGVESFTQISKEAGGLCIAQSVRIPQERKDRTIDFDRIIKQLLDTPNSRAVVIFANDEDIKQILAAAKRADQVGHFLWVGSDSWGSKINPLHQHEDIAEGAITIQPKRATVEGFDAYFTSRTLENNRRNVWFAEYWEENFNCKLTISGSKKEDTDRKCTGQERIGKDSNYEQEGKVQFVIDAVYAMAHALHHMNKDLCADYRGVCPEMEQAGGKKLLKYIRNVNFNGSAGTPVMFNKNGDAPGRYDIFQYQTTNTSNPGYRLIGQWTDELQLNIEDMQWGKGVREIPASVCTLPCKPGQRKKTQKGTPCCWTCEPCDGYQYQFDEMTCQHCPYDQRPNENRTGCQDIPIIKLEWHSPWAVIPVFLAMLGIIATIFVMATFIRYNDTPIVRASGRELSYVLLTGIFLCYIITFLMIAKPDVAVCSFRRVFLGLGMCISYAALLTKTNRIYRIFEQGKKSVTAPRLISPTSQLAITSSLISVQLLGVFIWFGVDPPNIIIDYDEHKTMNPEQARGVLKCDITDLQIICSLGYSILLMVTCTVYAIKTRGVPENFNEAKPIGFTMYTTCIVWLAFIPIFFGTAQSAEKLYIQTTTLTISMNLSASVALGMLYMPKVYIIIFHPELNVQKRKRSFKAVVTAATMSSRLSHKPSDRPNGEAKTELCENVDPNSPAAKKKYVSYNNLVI
Series [23] concerns the target Metabotropic glutamate receptor 1 (Homo sapiens) (UniProt Q13255). Nature of the series: Positive allosteric modulation of mGlu1 receptor at 10 uM.
Series [24] has the same target. Kind of series: Negative allosteric modulation of mGlu1 receptor at 10 uM.
The target in series [25] is Metabotropic glutamate receptor 3 (Homo sapiens) (UniProt Q14832). Nature of the series: Negative allosteric modulation of mGlu3 receptor at 10 uM.
Metabotropic glutamate receptor 3 (Homo sapiens), sequence (Q14832 23-879 limits assumed): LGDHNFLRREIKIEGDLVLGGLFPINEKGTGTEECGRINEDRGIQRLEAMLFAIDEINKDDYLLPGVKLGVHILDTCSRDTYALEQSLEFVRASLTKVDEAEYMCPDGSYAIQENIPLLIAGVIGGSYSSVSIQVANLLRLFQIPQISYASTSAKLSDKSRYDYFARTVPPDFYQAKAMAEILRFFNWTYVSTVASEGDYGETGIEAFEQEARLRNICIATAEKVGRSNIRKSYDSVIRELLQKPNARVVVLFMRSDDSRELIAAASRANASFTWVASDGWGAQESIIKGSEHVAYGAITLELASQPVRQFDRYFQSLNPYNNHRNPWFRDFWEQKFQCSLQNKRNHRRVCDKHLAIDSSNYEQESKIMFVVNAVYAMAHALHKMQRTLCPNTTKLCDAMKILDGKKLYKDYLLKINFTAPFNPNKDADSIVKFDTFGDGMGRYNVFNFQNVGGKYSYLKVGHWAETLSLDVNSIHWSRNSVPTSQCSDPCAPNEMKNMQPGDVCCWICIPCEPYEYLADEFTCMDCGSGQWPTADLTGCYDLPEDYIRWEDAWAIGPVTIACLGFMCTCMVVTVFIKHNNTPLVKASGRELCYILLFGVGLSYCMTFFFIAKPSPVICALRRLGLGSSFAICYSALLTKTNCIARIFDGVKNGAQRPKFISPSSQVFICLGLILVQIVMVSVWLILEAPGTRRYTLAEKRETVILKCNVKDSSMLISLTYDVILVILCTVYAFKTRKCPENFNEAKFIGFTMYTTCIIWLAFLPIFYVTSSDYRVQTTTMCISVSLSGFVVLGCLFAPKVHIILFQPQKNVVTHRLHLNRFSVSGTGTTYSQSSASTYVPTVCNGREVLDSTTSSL
For series [26], the target named is Metabotropic glutamate receptor 6 (Homo sapiens) (UniProt O15303). Kind of series: Negative allosteric modulation of mGlu6 receptor at 10 uM.
In series [27] the target is Metabotropic glutamate receptor 8 (Homo sapiens) (UniProt O00222). Kind of series: Agonist activity at mGlu8 receptor at 10 uM. The class given is functional.
Metabotropic glutamate receptor 8 (Homo sapiens), sequence (O00222 whole entry): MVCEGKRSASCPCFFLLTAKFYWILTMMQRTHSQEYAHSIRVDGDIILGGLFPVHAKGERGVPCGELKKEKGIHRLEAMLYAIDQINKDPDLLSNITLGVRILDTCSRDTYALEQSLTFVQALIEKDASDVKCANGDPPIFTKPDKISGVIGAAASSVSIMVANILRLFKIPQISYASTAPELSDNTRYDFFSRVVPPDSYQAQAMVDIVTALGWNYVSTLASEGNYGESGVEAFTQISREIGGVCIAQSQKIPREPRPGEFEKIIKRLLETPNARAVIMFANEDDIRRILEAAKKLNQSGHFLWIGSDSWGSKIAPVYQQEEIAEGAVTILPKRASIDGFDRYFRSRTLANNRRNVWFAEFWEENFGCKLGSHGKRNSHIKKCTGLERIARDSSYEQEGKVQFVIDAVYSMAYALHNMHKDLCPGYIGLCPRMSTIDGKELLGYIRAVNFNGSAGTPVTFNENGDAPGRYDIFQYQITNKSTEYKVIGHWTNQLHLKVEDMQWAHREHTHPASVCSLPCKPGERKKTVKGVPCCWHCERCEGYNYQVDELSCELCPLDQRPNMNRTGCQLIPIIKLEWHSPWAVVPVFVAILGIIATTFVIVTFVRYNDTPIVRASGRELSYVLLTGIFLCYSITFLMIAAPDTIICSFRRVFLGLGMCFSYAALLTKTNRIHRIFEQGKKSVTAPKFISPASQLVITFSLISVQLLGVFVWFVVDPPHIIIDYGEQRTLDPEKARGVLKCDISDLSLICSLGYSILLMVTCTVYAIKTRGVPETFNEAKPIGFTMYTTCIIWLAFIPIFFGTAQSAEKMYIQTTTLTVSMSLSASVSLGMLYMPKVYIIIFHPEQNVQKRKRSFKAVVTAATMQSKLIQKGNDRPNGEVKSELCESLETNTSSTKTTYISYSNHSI
In series [28] the target is Metabotropic glutamate receptor 5 (Homo sapiens) (UniProt P41594). Nature of the series: Positive allosteric modulation of mGlu5 receptor at 10 uM.
Metabotropic glutamate receptor 5 (Homo sapiens), sequence (P41594 21-1212 limits assumed): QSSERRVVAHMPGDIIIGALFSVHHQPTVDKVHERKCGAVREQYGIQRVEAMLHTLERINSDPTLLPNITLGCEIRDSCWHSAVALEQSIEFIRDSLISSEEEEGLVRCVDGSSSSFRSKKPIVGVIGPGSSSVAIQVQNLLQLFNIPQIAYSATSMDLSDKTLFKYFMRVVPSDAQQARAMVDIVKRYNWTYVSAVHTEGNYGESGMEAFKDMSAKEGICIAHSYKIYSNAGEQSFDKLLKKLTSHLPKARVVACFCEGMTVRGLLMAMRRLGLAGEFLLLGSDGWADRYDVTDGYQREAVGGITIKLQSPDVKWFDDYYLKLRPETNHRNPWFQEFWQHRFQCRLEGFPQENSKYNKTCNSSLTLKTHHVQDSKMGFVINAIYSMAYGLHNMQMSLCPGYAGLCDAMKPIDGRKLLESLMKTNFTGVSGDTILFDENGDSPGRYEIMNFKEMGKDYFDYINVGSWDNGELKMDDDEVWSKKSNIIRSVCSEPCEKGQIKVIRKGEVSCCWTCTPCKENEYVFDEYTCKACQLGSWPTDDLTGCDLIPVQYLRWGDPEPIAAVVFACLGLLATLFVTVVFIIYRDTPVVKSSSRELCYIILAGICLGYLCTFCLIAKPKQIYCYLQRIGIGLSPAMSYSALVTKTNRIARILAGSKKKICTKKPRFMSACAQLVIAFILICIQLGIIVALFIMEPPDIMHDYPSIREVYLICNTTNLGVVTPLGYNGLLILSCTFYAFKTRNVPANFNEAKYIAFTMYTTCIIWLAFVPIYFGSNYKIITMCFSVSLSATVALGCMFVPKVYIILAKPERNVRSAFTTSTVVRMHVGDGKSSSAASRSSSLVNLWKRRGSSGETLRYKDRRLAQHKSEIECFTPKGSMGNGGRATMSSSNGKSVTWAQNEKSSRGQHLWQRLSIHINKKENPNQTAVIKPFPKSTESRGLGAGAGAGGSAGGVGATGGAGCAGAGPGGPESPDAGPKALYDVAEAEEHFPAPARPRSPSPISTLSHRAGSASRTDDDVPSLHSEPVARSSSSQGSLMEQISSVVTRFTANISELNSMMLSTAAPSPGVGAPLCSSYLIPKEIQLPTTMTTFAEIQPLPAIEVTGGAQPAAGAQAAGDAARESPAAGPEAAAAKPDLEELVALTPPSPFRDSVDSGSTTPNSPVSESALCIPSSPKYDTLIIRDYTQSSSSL
Series [29] addresses Metabotropic glutamate receptor 8 (Homo sapiens) (UniProt O00222). Nature of the series: Positive allosteric modulation of mGlu8 receptor at 10 uM.
In series [30] the target is T3, Melatonin receptor type 1A (Homo sapiens, UniProt P48039). Kind of series: Agonist activity at MT1. The class given is functional.
T3 sequence (P48039 whole entry): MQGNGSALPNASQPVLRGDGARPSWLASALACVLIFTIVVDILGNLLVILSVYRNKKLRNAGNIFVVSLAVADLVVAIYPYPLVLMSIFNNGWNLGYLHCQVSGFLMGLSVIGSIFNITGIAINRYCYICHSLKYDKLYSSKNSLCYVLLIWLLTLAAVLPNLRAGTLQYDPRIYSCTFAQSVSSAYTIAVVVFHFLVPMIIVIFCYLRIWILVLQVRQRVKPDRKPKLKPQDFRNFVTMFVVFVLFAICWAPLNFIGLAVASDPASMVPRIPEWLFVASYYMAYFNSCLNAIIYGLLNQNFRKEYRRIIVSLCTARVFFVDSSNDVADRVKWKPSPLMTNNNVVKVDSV
The target of series [31] is Metabotropic glutamate receptor 8 (Homo sapiens) (UniProt O00222). Kind of series: Negative allosteric modulation of mGlu8 receptor at 10 uM.
The target of series [32] is Metabotropic glutamate receptor 3 (Homo sapiens) (UniProt Q14832). Kind of series: Agonist activity at mGlu3 receptor at 10 uM. The class given is functional.
The subject of series [33] is Cerebrospinal fluid. Kind of series: Drug uptake in rat CSF at 30 mg/kg, sc. The class given is ADME, organism-based. The arrangement: dose 30 mg/kg, route subcutaneous. As to conditions: in vivo.
The target in series [34] is T3, Melatonin receptor type 1A. Kind of series: Agonist activity at MT1 relative to control. The class given is functional.
Series [35] concerns the target Metabotropic glutamate receptor 2 (Homo sapiens) (UniProt Q14416). Kind of series: Agonist activity at mGlu2 receptor at 10 uM. The class given is functional.
In series [36] the target is Metabotropic glutamate receptor 3 (Homo sapiens) (UniProt Q14832). Kind of series: Positive allosteric modulation of mGlu3 receptor at 10 uM.
In series [37] the target is 5-hydroxytryptamine receptor 2B (Homo sapiens, UniProt P41595). Nature of the series: Inhibition of 5HT2B.
Series [38] addresses Metabotropic glutamate receptor 7 (Homo sapiens) (UniProt Q14831). Nature of the series: Positive allosteric modulation of mGlu7 receptor at 10 uM.
Series [39] concerns the target Metabotropic glutamate receptor 6 (Homo sapiens) (UniProt O15303). Kind of series: Agonist activity at mGlu6 receptor at 10 uM. The class given is functional.
The target in series [40] is Metabotropic glutamate receptor 1 (Homo sapiens) (UniProt Q13255). Kind of series: Agonist activity at mGlu1 receptor at 10 uM. The class given is functional.
Series [41] concerns the target Metabotropic glutamate receptor 7 (Homo sapiens) (UniProt Q14831). Nature of the series: Agonist activity at mGlu7 receptor at 10 uM. The class given is functional.
The target in series [42] is Metabotropic glutamate receptor 2 (Homo sapiens) (UniProt Q14416). Nature of the series: Positive allosteric modulation of mGlu2 receptor at 10 uM.
For series [43], the target named is Metabotropic glutamate receptor 5 (Homo sapiens) (UniProt P41594). Nature of the series: Negative allosteric modulation of mGlu5 receptor at 10 uM.
The test system of series [44] is Brain. Kind of series: Drug uptake in rat brain at 30 mg/kg, sc. The class given is ADME, organism-based. Set-up: dose 30 mg/kg, route subcutaneous. Particulars: in vivo.
Series [45] is described as follows: Ratio of drug level in brain to plasma in rat at 30 mg/kg, sc. As to conditions: read-out: BPR. Set-up: dose 30 mg/kg, route subcutaneous. The class given is ADME, organism-based.
The target in series [46] is Voltage-gated inwardly rectifying potassium channel KCNH2 (Homo sapiens, UniProt Q12809). Nature of the series: Inhibition of human ERG by electrophysiology assay.
The target in series [47] is Metabotropic glutamate receptor 5 (Homo sapiens) (UniProt P41594). Kind of series: Agonist activity at mGlu5 receptor at 10 uM. The class given is functional.

Each structure is given as a SMILES string. In brackets after ≈: the same amount, converted by molar mass. Activity calls are given as the source filed them. The rule behind the calls is not given here.

As for `CCN(CC)C(=O)Oc1ccc2c(-c3cnn(-c4ccccc4)c3)ccnc2c1`, the Fu in series [1] came to 0.4%. In addition, the maximum response (Emax) in series [2] is 120%. Moreover, the Drug uptake in series [3] is less than 1 ng/mL; in series [5], 35 ng/g. In addition, in [4], the CL is 46 mL/min. The inhibition at 5 µM in [6] is 88%; in series [8], 35%; in [9] it was 61%; in series [15] it was 83%. The EC50 in [7] amounted to 390 nM. For the same compound, the solubility kinetic in series [10] was 1.4 µM (≈ 0.541 µg/mL); in series [12] it was 190 µM (≈ 73.4 µg/mL). The compound also displayed a Cp in series [11] of 23 ng/mL. Besides, the fraction unbound in series [13] was 0.012. For the same compound, in series [14], the Ratio amounted to 11.2. The Kp in series [16] is 1.5.

Consider `COc1ccc2c(-c3cnn(-c4ccccc4)c3)ccnc2c1`, for which, in [1], the Fu amounted to 0.1%. Further, the Emax in series [2] came out at 79%. The Drug uptake in series [3] is less than 1 ng/mL; in series [5] it was 180 ng/g. In series [4], the CL was determined as 68 mL/min. The compound also came in with a logD in series [17] of 5. Besides, the EC50 in series [7] amounted to 220 nM. Further, the inhibition at 5 µM in series [8] and in series [9] was 35% throughout. In addition, the solubility kinetic in series [10] came to 4.6 µM (≈ 1.39 µg/mL); in series [12], 120 µM (≈ 36.2 µg/mL). Also, in series [11], the Cp stood at 220 ng/mL. Moreover, the fraction unbound in series [13] is 0.002. The Kp in series [16] was determined as 0.8.

In the case of `c1ccc(-n2cc(-c3ccnc4ccccc34)cn2)cc1`, the result in series [18], in series [19], in series [22], in series [23], in series [24] and in [25] was inactive. Besides, the result in [26], in [27], in [28], in [29], in [31] and in series [32] was inactive. Further, the result in [35], in series [36], in series [38], in series [39], in [40] and in series [41] was inactive. The result in series [42], in series [43] and in series [47] was inactive. This compound also yielded a Fu in series [1] of 0.7%. In series [20], the Cp is 1886 ng/mL. In addition, the Emax in series [2] turned out to be 105%; in series [34] it was 84%. Besides, the figures for the half-maximal inhibitory concentration (IC50) in series [21], in series [37] and in series [46] were 3100 nM, 1600 nM and 2500 nM, respectively. In addition, the CL in series [4] was 550 mL/min. Besides, the inhibition at 5 µM in series [6] amounted to 48%; in [8], 38%; in series [9], 56%. Besides, in series [17], the logD was 3.9. Also, the EC50 was determined as 220 nM in series [7] and 920 nM in series [30]. Also, the solubility kinetic in series [10] turned out to be 21 µM (≈ 5.7 µg/mL); in [12], 150 µM (≈ 40.7 µg/mL). Besides, the Drug uptake in [33] was determined as 72 ng/mL; in series [44], 5055 ng/g. Further, in series [13], the fraction unbound was 0.004. For the same compound, the Ratio in series [14] was 12. Moreover, the Kp in series [45] was found to be 2.7.

Broadly, the Emax is the maximal effect, on the per cent scale that the assay sets. The term inhibition denotes the share of the control response that was lost under treatment. Read a low inhibition as a weak effect. In general, EC50 refers to the concentration giving half of the maximal effect. In general, logD refers to the decadic logarithm of the distribution of all forms, ionised or not, between an organic phase and buffer at a given pH. Low readings indicate lower lipophilicity, high ones higher lipophilicity. As a reminder, the IC50 is the concentration that gives 50% inhibition. Higher therefore signals weaker potency in that assay.

For the origin of these results see ChEMBL document CHEMBL2021760, “4-(1-Phenyl-1H-pyrazol-4-yl)quinolines as novel, selective and brain penetrant metabotropic glutamate receptor 4 positive allosteric modulators” (Bioorg Med Chem Lett, 2012).
